Tested on: 922993-354-T-J3-PDC complex spheroid viability
Experiment: Anticancer human tumor 922993-354-T-J3-PDC patient-derived endometrial carcinoma cell line growth inhibition [POLQ]
Details: for IC50: curve of first compound; for viability, T/C: stronger effect = lower value
Protocol: Multicellular complex tumor spheroid response to Polymerase (POL) inhibitors (novobiocin, ART-558, RP6685) in combination with a variety of drugs and investigational agents in selected tumor cell lines
The POL inhibitors (novobiocin, ART-558, and RP6685) were evaluated both individually and in combination with standard of care and investigational anticancer small molecules within a complex spheroid model of solid tumors. . Complex spheroids include a stromal component modeled by human endothelial cells (HUVEC) and fibroblasts modeled by human mesenchymal stem cells (MSCs). The concentration ranges selected for each drug and investigational agent were based upon clinically achievable concentrations if the clinical Cmax of the agent was known.
Compounds. The drugs and investigational agents: novobiocin (NSC847541), ART-558 (NSC835418), RP-6685 (NSC848927), peposertib (NSC802822), ceralasertib (NSC780249), elimusertib (NSC800525), camonsertib (NSC841442), AZD-1390 (NSC803789), olaparib (NSC753686), talazoparib (NSC767125), rucaparib (NSC756644), sotorasib (NSC818433), MRTX-1133 (NSC836407), SN-38 (NSC673596), topotecan (NSC609699), epotoside (NSC141540), doxorubicin (NSC123127), gemcitabine (NSC613327), 5-fluorouracil (NSC19893), paclitaxel (NSC125973), vemurafenib (NSC761431), MSA-2 (NSC828583), SN-011 (NSC837082), adavosertib (NSC754352), prexasertib (NSC758257), carboplatin (NSC241240) and oxaliplatin (NSC266046), were obtained from the National Cancer Institute (NCI) Developmental Therapeutics Program Chemical Repository (21). The FDA-approved anticancer drug set is available from the Developmental Therapeutics Program at https://dtp.cancer.gov/organization/dscb/obtaining/. […] The stock solutions were prepared in dimethyl sulfoxide (DMSO, Sigma-Aldrich, St. Louis, MO, cat. D2650), except for the platinum compounds which were prepared in saline (Quality Biological, Gaithersburg, MD, cat. 114-055-101), at 800-fold the tested concentration and stored at -70 degrees C prior to their use. All drugs and investigational agents were tested over a range starting from a high concentration at or near the clinical Cmax and decreasing in half-log increments. If the clinical Cmax for an agent had not been determined, the highest concentration tested was 10 microM, except for SN-38, which was tested at a high concentration of 1 microM.
Cell Culture. All cells were maintained in an incubator at 37 degrees C and 5% CO2 with 95% humidity. The PDC lines were cultured according to standard operating procedures established by the NCI PDMR (https://pdmr.cancer.gov). Table 3 of the manuscript, lists the cell lines along with the number of the three cell types plated to form the mct-spheroids and media for tumor cell growth. After thawing, all PDC lines, except 997537-175-T-J1-PDC and 415267-285-R-J2-PDC, were cultured in Matrigel-coated flasks prepared with a working solution of 1X Ham's F-12 nutrient mix, without supplementation (Thermo Fisher Scientific, cat. 11765054), 100 U/mL penicillin-streptomycin (Thermo Fisher Scientific, cat. 15140122), and 2.5% Matrigel (Corning Inc., Corning, NY, cat. 354248) for the first three passages. The two PDC lines 997537-175-T-J1-PDC and 415267-285-R-J2-PDC were cultured on uncoated flasks. The 857933-349-R-J2-PDC line was cultured in 6C/Colon 1B media containing advanced DMEM/F-12 (Thermo Fisher Scientific, cat. 12634028), 10 mM HEPES (Thermo Fisher Scientific, cat. 15630080), 1X GlutaMAX supplement (Thermo Fisher Scientific, cat. 35050061), 0.1 mg/mL primocin (InvivoGen, San Diego, CA, cat. ant-pm-2), 10% defined fetal bovine serum, heat inactivated (HyClone Laboratories Inc., Logan, UT, cat. SH30070.03HI), 50% L-WRN conditioned media (ATCC, cat. CRL-3276), 1.25 mM N-Acetyl-L-cysteine (Sigma-Aldrich, cat. A9165), 10 mM nicotinamide (Sigma-Aldrich, cat. N0636), 1X B-27 supplement (Thermo Fisher Scientific, cat. 17504044), 1X N-2 supplement (Thermo Fisher Scientific, cat. […]

[1] = second compound 0.0316 µM, first compound 0.0316 µM
[2] = second compound 0.0316 µM, first compound 0.1 µM
[3] = second compound 0.0316 µM, first compound 0.316 µM
[4] = second compound 0.0316 µM, first compound 1 µM
[5] = second compound 0.0316 µM, first compound 3.16 µM
[6] = second compound 0.0316 µM, first compound 10 µM
[7] = second compound 0.1 µM, first compound 0.0316 µM
[8] = second compound 0.1 µM, first compound 0.1 µM
[9] = second compound 0.1 µM, first compound 0.316 µM
[10] = second compound 0.1 µM, first compound 1 µM
[11] = second compound 0.1 µM, first compound 3.16 µM
[12] = second compound 0.1 µM, first compound 10 µM
[13] = second compound 0.316 µM, first compound 0.0316 µM
[14] = second compound 0.316 µM, first compound 0.1 µM
[15] = second compound 0.316 µM, first compound 0.316 µM
[16] = second compound 0.316 µM, first compound 1 µM
[17] = second compound 0.316 µM, first compound 3.16 µM
[18] = second compound 0.316 µM, first compound 10 µM
[19] = second compound 1 µM, first compound 0.0316 µM
[20] = second compound 1 µM, first compound 0.1 µM
[21] = second compound 1 µM, first compound 0.316 µM
[22] = second compound 1 µM, first compound 1 µM
[23] = second compound 1 µM, first compound 3.16 µM
[24] = second compound 1 µM, first compound 10 µM
[25] = second compound 3.16 µM, first compound 0.0316 µM
[26] = second compound 3.16 µM, first compound 0.1 µM
[27] = second compound 3.16 µM, first compound 0.316 µM
[28] = second compound 3.16 µM, first compound 1 µM
[29] = second compound 3.16 µM, first compound 3.16 µM
[30] = second compound 3.16 µM, first compound 10 µM
[31] = second compound 10 µM, first compound 0.0316 µM
[32] = second compound 10 µM, first compound 0.1 µM
[33] = second compound 10 µM, first compound 0.316 µM
[34] = second compound 10 µM, first compound 1 µM
[35] = second compound 10 µM, first compound 3.16 µM
[36] = second compound 10 µM, first compound 10 µM
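Note: spheroids exposed to the agents for one week.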
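Throughout, for viability, T/C: 100% = DMSO vehicle control wells.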

COc1cc(C2c3cc4c(cc3C(OC3OC5COC(C)OC5C(O)C3O)C3COC(=O)C23)OCO4)cc(OC)c1O (stereo unspecified) + Cc1cccc(N(C)C(=O)C2C(O)CCN2c2nc(C)cc(C(F)(F)F)c2C#N)c1 was tested, and the IC50 (second compound 0.0316 µM) was 8.07 µM, the IC50 (second compound 0.1 µM) was 6.05 µM and the IC50 (second compound 0.316 µM) was 8.24 µM. It also gave an IC50 (second compound 1 µM) of 8.49 µM, an IC50 (second compound 3.16 µM) of 6.33 µM and an IC50 (second compound 10 µM) of 1.72 µM. For the same compound, the viability, T/C [1] was 101%, the viability, T/C [2] was 90% and the viability, T/C [3] was 91.2%. The viability, T/C [4] was 93.2%, the viability, T/C [5] was 89.8% and the viability, T/C [6] was 40.9%. It also gave a viability, T/C [7] of 101%, a viability, T/C [8] of 98.9% and a viability, T/C [9] of 95.9%. For the same compound, the viability, T/C [10] was 96.3%, the viability, T/C [11] was 68.9% and the viability, T/C [12] was 35.3%. The viability, T/C [13] was 112%, the viability, T/C [14] was 102% and the viability, T/C [15] was 99.5%. For the same compound, the viability, T/C [16] was 93.4%, the viability, T/C [17] was 80.8% and the viability, T/C [18] was 43.3%. The viability, T/C [19] was 92.2%, the viability, T/C [20] was 98.8% and the viability, T/C [21] was 96.3%. The viability, T/C [22] was 88.5%, the viability, T/C [23] was 76.5% and the viability, T/C [24] was 45.6%. It also gave a viability, T/C [25] of 102%, a viability, T/C [26] of 95.8% and a viability, T/C [27] of 89.9%. The viability, T/C [28] was 86%, the viability, T/C [29] was 74.9% and the viability, T/C [30] was 34.8%. For the same compound, the viability, T/C [31] was 100%, the viability, T/C [32] was 79.9% and the viability, T/C [33] was 92.1%. For the same compound, the viability, T/C [34] was 65.6%, the viability, T/C [35] was 32.1% and the viability, T/C [36] was 21.6%.

Compound Nc1ccn(C2OC(CO)C(O)C2(F)F)c(=O)n1 (stereo unspecified) + Cc1cccc(N(C)C(=O)C2C(O)CCN2c2nc(C)cc(C(F)(F)F)c2C#N)c1 has an IC50 (second compound 0.0316 µM) of less than 0.0316 µM, an IC50 (second compound 0.1 µM) of less than 0.0316 µM and an IC50 (second compound 0.316 µM) of less than 0.0316 µM. The IC50 (second compound 1 µM) was less than 0.0316 µM, the IC50 (second compound 3.16 µM) was less than 0.0316 µM and the IC50 (second compound 10 µM) was less than 0.0316 µM. For the same compound, the viability, T/C [1] was 11.1%, the viability, T/C [2] was 10.3% and the viability, T/C [3] was 9.57%. It also gave a viability, T/C [4] of 11.8%, a viability, T/C [5] of 9.18% and a viability, T/C [6] of 9.18%. It also gave a viability, T/C [7] of 14.8%, a viability, T/C [8] of 10.9% and a viability, T/C [9] of 11.3%. It also gave a viability, T/C [10] of 10.7%, a viability, T/C [11] of 10.7% and a viability, T/C [12] of 11%. For the same compound, the viability, T/C [13] was 11.9%, the viability, T/C [14] was 11.5% and the viability, T/C [15] was 11.9%. For the same compound, the viability, T/C [16] was 9.92%, the viability, T/C [17] was 8.14% and the viability, T/C [18] was 9.97%. It also gave a viability, T/C [19] of 12.6%, a viability, T/C [20] of 9.47% and a viability, T/C [21] of 8.22%. For the same compound, the viability, T/C [22] was 8.9%, the viability, T/C [23] was 7.29% and the viability, T/C [24] was 10.3%. It also gave a viability, T/C [25] of 11.3%, a viability, T/C [26] of 10.2% and a viability, T/C [27] of 10.6%. For the same compound, the viability, T/C [28] was 7.56%, the viability, T/C [29] was 9.43% and the viability, T/C [30] was 10.6%. It also gave a viability, T/C [31] of 7.43%, a viability, T/C [32] of 8.87% and a viability, T/C [33] of 7.1%. For the same compound, the viability, T/C [34] was 6.45%, the viability, T/C [35] was 8.61% and the viability, T/C [36] was 8.92%.

In the case of COc1cccc2c1C(=O)c1c(O)c3c(c(O)c1C2=O)CC(O)(C(=O)CO)CC3OC1CC(N)C(O)C(C)O1 (stereo unspecified) + Nc1ccc(C#CCN(C(=O)Cc2ncc(C(F)(F)F)cc2C(F)(F)F)c2ccc(F)cc2)nn1, the IC50 (second compound 0.0316 µM) is reported as 5.58 µM, the IC50 (second compound 0.1 µM) is reported as 5.44 µM and the IC50 (second compound 0.316 µM) is reported as 5.79 µM. The IC50 (second compound 1 µM) was 5.39 µM, the IC50 (second compound 3.16 µM) was 2.31 µM and the IC50 (second compound 10 µM) was 0.24 µM. For the same compound, the viability, T/C [1] was 103%, the viability, T/C [2] was 105% and the viability, T/C [3] was 91.3%. For the same compound, the viability, T/C [4] was 84.9%, the viability, T/C [5] was 74.7% and the viability, T/C [6] was 28.3%. It also gave a viability, T/C [7] of 102%, a viability, T/C [8] of 103% and a viability, T/C [9] of 92.3%. For the same compound, the viability, T/C [10] was 87.9%, the viability, T/C [11] was 74.3% and the viability, T/C [12] was 24.9%. For the same compound, the viability, T/C [13] was 105%, the viability, T/C [14] was 101% and the viability, T/C [15] was 99.6%. The viability, T/C [16] was 85.4%, the viability, T/C [17] was 71% and the viability, T/C [18] was 32.1%. The viability, T/C [19] was 98.9%, the viability, T/C [20] was 105% and the viability, T/C [21] was 96.2%. The viability, T/C [22] was 80.7%, the viability, T/C [23] was 72.1% and the viability, T/C [24] was 28.2%. The viability, T/C [25] was 95.2%, the viability, T/C [26] was 93.4% and the viability, T/C [27] was 79.7%. The viability, T/C [28] was 75.4%, the viability, T/C [29] was 39.9% and the viability, T/C [30] was 17.5%. For the same compound, the viability, T/C [31] was 78.7%, the viability, T/C [32] was 75.2% and the viability, T/C [33] was 41.5%. It also gave a viability, T/C [34] of 14.5%, a viability, T/C [35] of 38.1% and a viability, T/C [36] of 14.8%.
